{
  "source": "patent EP2444091B1",
  "about": "“USE OF T[…] MELIA AZEDARACH EXTRACTS FOR PREVENTING OR TREATING DEMENTIA” (Ildong Pharm Co., Ltd., priority 2009, dated 2010)",
  "key": {"Aβ40": {"system": "Aβ40", "assay": "Aβ40 quantification in rat serum before/after oral administration", "format": "in vivo", "details": "5mg/kg oral, blood after two hours", "method": "Before administration of toosendanin, blood was secured. Then, toosendanin suspended in 20% ethyl alcohol was orally administered in doses of 5 and 50mg/kg. After two hours, the blood was collected, and the concentration change of Aβ within the blood before/after administration was measured. The collected blood was centrifuged (16,000×g, 20 minutes, 4°C), and Aβ40 within the collected serum was quantified by using an Aβ40 quantitative analysis kit (Mouse/Rat Amyloidβ (1-40) High Specific Assay Kit, IBL, Japan)."}, "[1]": {"system": "APPα and APPβ (APP metabolites)", "assay": "APPα and APPβ production in culture medium by western blot, BA-3 cell line overexpressing BACE1 and APP695", "format": "cell-based", "method": "A HEK293-derived BA-3 cell line overexpressing BACE1(β-secretase) and APP695 was plated on 6-well plate by using DMEM (Dulbecco's Modified Eagle's Medium) including 10% fetal bovin serum (FBS) in such a manner that it occupied 80% or more of the area in each well, and then was cultured for 1 day. After the removal of the culture medium, free DMEM (not including fetal bovine serum) was heated to 37°C, and added in an amount of 0.9ml to each well. Then, toosendanin or a toosendan fructus fraction extracted with each solvent was diluted to an appropriate concentration by 0.1ml free DMEM, and the cell line was treated with these materials, and cultured for 24 hours. 0.2ml of the culture medium treated with each test sample was collected, and subjected to electrophoresis by 8% SDS-PAGE (polyacrylamide gel electrophoresis). Then, AB1560(monoclonal) and Rb53(polyclonal) antibodies (antibodies against APPα and APPβ) were used to measure the amounts of APPα and APPβ within the culture medium through western blotting.\nExtracts (ethyl alcohol, methanol, ethyl acetate, and 90% methanol) of meliae cortex (bark of chinaberry) were obtained under the same organic solvent extraction condition of toosendan fructus. Then, their effects on APPβ production reduction were tested.\nOn the toosendan fructus ethyl alcohol extract obtained from Example 9-1, an APPβ production reducing effect, an APPα production promoting effect, and an Aβ production inhibiting effect were measured in the same manner as described in Example 5."}, "[2]": {"details": "concentration of 12.5nM or less"}},
  "data": [
    {"molecule": "CC(=O)O[C@@H]1C[C@H](O)[C@@]23CO[C@@H](O)[C@]1(C)[C@@H]2C[C@@H](O)[C@]1(C)[C@@H]3C(=O)[C@H](OC(C)=O)[C@@]2(C)[C@H](c3ccoc3)C[C@H]3O[C@]321", "note": "[toosendanin]", "values": [
      {"measurement": "inhibition of Aβ40 in serum", "setting": "Aβ40", "result": "≥ 85", "unit": "%"},
      {"measurement": "production of APPα with respect to a non-treated group", "setting": "[1]; at 0.8uM, 24 hours", "result": 141.5, "unit": "%"},
      {"measurement": "production of APPβ with respect to a non-treated group", "setting": "[1]; at 0.8uM, 24 hours", "result": 17.8, "unit": "%"},
      {"measurement": "production of APPα", "setting": "[1]; [2]", "result": "promoting the production of APPα"},
      {"measurement": "production of APPβ", "setting": "[1]; [2]", "result": "inhibited the production of APPβ"}
    ]}
  ]
}
